Molecular target: T1, glOTC (Giardia duodenalis, UniProt O76458)
T1 sequence (O76458 1-327): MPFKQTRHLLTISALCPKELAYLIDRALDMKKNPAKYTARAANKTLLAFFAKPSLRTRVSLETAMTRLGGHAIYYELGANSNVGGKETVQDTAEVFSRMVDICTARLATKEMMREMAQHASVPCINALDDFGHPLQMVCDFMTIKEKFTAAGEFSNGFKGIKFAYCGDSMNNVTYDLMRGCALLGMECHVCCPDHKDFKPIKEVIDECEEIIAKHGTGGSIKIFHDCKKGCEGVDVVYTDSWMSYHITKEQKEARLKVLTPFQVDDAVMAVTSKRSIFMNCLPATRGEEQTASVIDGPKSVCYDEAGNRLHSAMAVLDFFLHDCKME
Experiment: coupled spectrophotometric assay at […] nm
Type: biochemical

N[C@@H](CCCNC(=O)CP(=O)(O)O)C(=O)O [PALO, N-phosphonoacetyl-L-ornthine]
Ki: 25 ± 9 nM
